Experimental data published in patent US10131670B2, “Bicyclic heteroaryl derivatives as CFTR potentiators” (CYSTIC FIBROSIS FOUNDATION THERAPEUTICS, INC., priority 2016, dated 2018).

Experiments:
CFTR = CFTR (Homo sapiens, UniProt P13569); assay: Ussing Chamber Electrophysiology Assay of CFTR Potentiation in CF Bronchial Epithelial Cells; format: cell-based; conditions: primary CF hBE cells, short-circuit current, scaled to DMSO (0%) and positive control potentiator (100%)
Text: Ussing Chamber Electrophysiology Assay of CFTR Potentiation in CF Bronchial Epithelial Cells
Primary cystic fibrosis human bronchial epithelial (CF hBE) cells were expanded and cultured according to published methods (Neuberger et al., Ch. 4 of Cystic Fibrosis, Methods in Molecular Biology vol. 741, pp. 39-54 (2011)). Well-differentiated cells (>30 days at air/liquid interface) on Snapwell filters (Corning Costar, cat. no. 3801) were mounted in Ussing chambers (Physiologic Instruments, Inc., San Diego, Calif.). F508del/F508del cultures were assayed at 27° C. and G551D/F508del cells were assayed at 35° C. HEPES buffered physiological saline (composition (in mM): 137 NaCl, 4 KCl, 1 MgCl2, 1.8 CaCl2, 10 HEPES Na) was used in both apical and basolateral chambers. Chambers were bubbled with air to promote mixing and the voltage was clamped to zero. Amiloride (30 uM), forskolin (10 uM), test compound (4 increasing concentrations), and CFTRinh-172 (20 uM) were added sequentially with 20-25 minutes between additions. Short-circuit currents were acquired and analyzed using LabScribe2. Test compound responses were scaled relative to responses for DMSO (0%) and the maximal response of a positive control potentiator (100%).

F508del V470 CFTR = F508del V470 CFTR (Homo sapiens, UniProt P13569, DEL508-508); assay: FRT Ion Flux Assay of F508del CFTR Potentiation; format: cell-based; conditions: FRT cells expressing F508del V470 CFTR and halide-sensitive YFP, forskolin 20 uM, 30 min
Description: FRT Ion Flux Assay of F508del CFTR Potentiation
Fischer rat thyroid (FRT) cell lines stably expressing recombinant F508del V470 CFTR and halide-sensitive yellow fluorescent protein (Pedemonte et al., J. Clin. Invest. 115(9) 2564-71 (2005)) were seeded at 25,000 cells/well in 50 uL/well of culture medium into black-walled, clear bottom tissue-culture-treated 384-well plates (Corning, cat. no. 3712). After one day, the cells were pre-incubated at 27° C./5% CO2 for 16-24 hours. The cells were then washed with dPBS and treated with forskolin (20 uM) and test compound for 30 min by addition of 20 uL of compound dilution buffer (dPBS containing forskolin and test compound). Plates were loaded into FLIPR384 fluorescence imaging plate reader (Molecular Devices). After an initial fluorescence reading, iodide buffer (25 uL) (composition (in mM): 137 NaI, 1.5 K2PO4, 8.1 NaH2PO4, 2.7 KCl, 0.5 MgCl2, 1 CaCl2) was added and a second fluorescence reading was made after approximately 21 seconds. Data treatment involved division of the second fluorescence reading by the initial fluorescence reading, then scaling of the resulting normalized endpoint fluorescence with respect to the responses for DMSO (0%) and a positive control potentiator (100%).

Chain of F508del V470 CFTR (P13569 with tags, fused parts or gaps DEL508-508): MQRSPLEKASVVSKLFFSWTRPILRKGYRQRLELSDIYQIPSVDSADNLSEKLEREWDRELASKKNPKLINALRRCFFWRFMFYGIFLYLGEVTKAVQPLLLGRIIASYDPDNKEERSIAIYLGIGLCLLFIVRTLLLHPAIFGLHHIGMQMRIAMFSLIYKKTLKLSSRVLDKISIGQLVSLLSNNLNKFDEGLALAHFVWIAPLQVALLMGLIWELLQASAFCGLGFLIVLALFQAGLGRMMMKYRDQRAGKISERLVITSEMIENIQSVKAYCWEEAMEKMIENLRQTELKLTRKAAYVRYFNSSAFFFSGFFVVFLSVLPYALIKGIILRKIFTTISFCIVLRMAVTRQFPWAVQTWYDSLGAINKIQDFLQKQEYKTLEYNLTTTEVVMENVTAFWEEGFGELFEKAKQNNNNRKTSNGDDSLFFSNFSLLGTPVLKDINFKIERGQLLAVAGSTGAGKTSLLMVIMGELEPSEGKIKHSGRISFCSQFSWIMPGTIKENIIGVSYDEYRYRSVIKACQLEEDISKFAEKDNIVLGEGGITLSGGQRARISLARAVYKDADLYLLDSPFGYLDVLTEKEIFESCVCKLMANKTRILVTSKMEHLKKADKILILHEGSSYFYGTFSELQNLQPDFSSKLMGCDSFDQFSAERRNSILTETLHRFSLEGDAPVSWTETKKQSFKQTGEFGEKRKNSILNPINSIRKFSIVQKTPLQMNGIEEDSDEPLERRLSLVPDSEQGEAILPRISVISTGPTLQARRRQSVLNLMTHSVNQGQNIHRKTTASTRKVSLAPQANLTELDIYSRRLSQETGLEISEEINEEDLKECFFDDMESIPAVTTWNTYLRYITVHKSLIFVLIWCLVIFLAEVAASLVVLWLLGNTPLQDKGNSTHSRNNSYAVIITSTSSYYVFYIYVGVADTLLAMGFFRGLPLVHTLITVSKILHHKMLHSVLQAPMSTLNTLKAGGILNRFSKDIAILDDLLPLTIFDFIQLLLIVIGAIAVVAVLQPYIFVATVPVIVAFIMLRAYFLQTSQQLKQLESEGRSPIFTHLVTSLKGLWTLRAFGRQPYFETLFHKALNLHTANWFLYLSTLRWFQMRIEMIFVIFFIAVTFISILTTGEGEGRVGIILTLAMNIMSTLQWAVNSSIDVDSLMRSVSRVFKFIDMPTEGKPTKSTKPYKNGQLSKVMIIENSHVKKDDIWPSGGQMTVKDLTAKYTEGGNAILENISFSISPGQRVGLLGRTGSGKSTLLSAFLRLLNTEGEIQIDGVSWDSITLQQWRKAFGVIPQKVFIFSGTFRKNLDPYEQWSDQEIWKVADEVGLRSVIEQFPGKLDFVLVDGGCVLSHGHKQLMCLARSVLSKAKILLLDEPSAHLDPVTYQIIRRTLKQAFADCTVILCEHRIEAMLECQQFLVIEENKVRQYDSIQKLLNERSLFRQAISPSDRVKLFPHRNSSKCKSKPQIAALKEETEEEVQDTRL

Row | Structure (SMILES) | EC50 (CFTR) [nM] | EC50 (F508del V470 CFTR) [nM]
1 | CCC(c1cn(-c2ccccc2F)nn1)c1cc(-c2cnc(C(F)(F)F)nc2)c2c(N)ncnn12 (stereo not shown) [Example 82, 7-{1-[1-(2-fluorophenyl)-1H-1,2,3-triazol-4-yl]propyl}-5-[2-(trifluoromethyl)pyrimidin-5-yl]pyrrolo[2,1-f][1,2,4]triazin-4-amine] | 4.93 | 5.83
2 | CCC(c1cnn(C(C)C)c1)c1c(C#N)c(-c2cnc(C(F)(F)F)nc2)c2c(N)ncnn12 (single isomer, unassigned) [Example 10, 4-amino-7-{1-[1-(propan-2-yl)-1H-pyrazol-4-yl]propyl}-5-[2-(trifluoromethyl)pyrimidin-5-yl]pyrrolo[2,1-f][1,2,4]triazine-6-carbonitrile] | 48 | 95.9
3 | CCC(c1cn(-c2ccc(F)cc2F)nn1)n1nc(-c2cnc(C(F)(F)F)nc2)c2c(N)ncnc21 (single isomer, unassigned) [Example 99, 1-{1-[1-(2,4-difluorophenyl)-1H-1,2,3-triazol-4-yl]propyl}-3-[2-(trifluoromethyl)pyrimidin-5-yl]-1H-pyrazolo[3,4-d]pyrimidin-4-amine] | 29.2 | 37.2
4 | CC(c1cn(-c2ccccc2F)nn1)c1c(C#N)c(-c2cnc(C(F)(F)F)nc2)c2c(N)ncnn12 (single isomer, unassigned) [Example 2, 4-amino-7-{1-[1-(2-fluorophenyl)-1H-1,2,3-triazol-4-yl]ethyl}-5-[2-(trifluoromethyl)pyrimidin-5-yl]pyrrolo[2,1-f][1,2,4]triazine-6-carbonitrile] | 11.2 | 9.14
5 | CCC(c1cn(-c2ccccc2)nn1)n1nc(-c2cnc(C(F)(F)F)nc2)c2c(N)ncnc21 (single isomer, unassigned) [Example 95, 1-[1-(1-phenyl-1H-1,2,3-triazol-4-yl)propyl]-3-[2-(trifluoromethyl)pyrimidin-5-yl]-1H-pyrazolo[3,4-d]pyrimidin-4-amine] | 188 | 349
6 | CCC(c1cn(-c2ccc(F)cc2F)nn1)c1c(C#N)c(-c2cnc(C(F)(F)F)nc2)c2c(N)ncnn12 (single isomer, unassigned) [Example 7, 4-amino-7-{1-[1-(2,4-difluorophenyl)-1H-1,2,3-triazol-4-yl]propyl}-5-[2-(trifluoromethyl)pyrimidin-5-yl]pyrrolo[2,1-f][1,2,4]triazine-6-carbonitrile] | 33.5 | 45.2
7 | CC(c1cnn(-c2ccc(F)cc2F)c1)c1c(C#N)c(-c2cnc(C(F)(F)F)nc2)c2c(N)ncnn12 (single isomer, unassigned) [Example 20, 4-amino-7-{1-[1-(2,4-difluorophenyl)-1H-pyrazol-4-yl]ethyl}-5-[2-(trifluoromethyl)pyrimidin-5-yl]pyrrolo[2,1-f][1,2,4]triazine-6-carbonitrile] | 8.94 | 30
8 | CCC(c1cn(-c2ccc(F)cc2F)nn1)c1c(C#N)c(-c2cnc(C(F)(F)F)nc2)c2c(N)ncnn12 (single isomer, unassigned) [Example 6, 4-amino-7-{1-[1-(2,4-difluorophenyl)-1H-1,2,3-triazol-4-yl]propyl}-5-[2-(trifluoromethyl)pyrimidin-5-yl]pyrrolo[2,1-f][1,2,4]triazine-6-carbonitrile] | 5.48 | 5.05
9 | CC(c1cnn(-c2ccccc2F)c1)c1c(C#N)c(-c2cnc(C(F)(F)F)nc2)c2c(N)ncnn12 (single isomer, unassigned) [Example 13, 4-amino-7-{1-[1-(2-fluorophenyl)-1H-pyrazol-4-yl]ethyl}-5-[2-(trifluoromethyl)pyrimidin-5-yl]pyrrolo[2,1-f][1,2,4]triazine-6-carbonitrile] | 0.42 | 0.62
10 | CCC(c1cnn(-c2ccc(F)cc2F)c1)c1c(C#N)c(-c2cnc(C(F)(F)F)nc2)c2c(N)ncnn12 (single isomer, unassigned) [Example 16, 4-amino-7-{1-[1-(2,4-difluorophenyl)-1H-pyrazol-4-yl]propyl}-5-[2-(trifluoromethyl)pyrimidin-5-yl]pyrrolo[2,1-f][1,2,4]thazine-6-carbonitrile] | 0.42 | 0.56
11 | CC(c1cn(-c2ccc(F)cc2F)nn1)c1cc(-c2cnc(C(F)(F)F)nc2)c2c(N)ncnn12 (single isomer, unassigned) [Example 56, 7-{1-[1-(2,4-difluorophenyl)-1H-1,2,3-triazol-4-yl]ethyl}-5-[2-(trifluoromethyl)pyrimidin-5-yl]pyrrolo[2,1-f][1,2,4]triazin-4-amine] | 7.48 | 8.76
12 | CC(O)(c1cn(-c2ccccc2F)nn1)c1cc(-c2cnc(C(F)(F)F)nc2)c2c(N)ncnn12 (single isomer, unassigned) [Example 67, 1-{4-amino-5-[2-(trifluoromethyl)pyrimidin-5-yl]pyrrolo[2,1-f][1,2,4]triazin-7-yl}-1-[1-(2-fluorophenyl)-1H-1,2,3-triazol-4-yl]ethanol] | 147 | 50.5

Continued, values first:

Row | EC50 (CFTR) [nM] | EC50 (F508del V470 CFTR) [nM] | Structure (SMILES)
13 | 1.53 | 4.76 | CCC(c1cnn(-c2ccccc2F)c1)n1nc(-c2cnc(C(F)(F)F)nc2)c2c(N)ncnc21 (single isomer, unassigned) [Example 87, 1-{1-[1-(2-fluorophenyl)-1H-pyrazol-4-yl]propyl}-3-[2-(trifluoromethyl)pyrimidin-5-yl]-1H-pyrazolo[3,4-d]pyrimidin-4-amine]
14 | 0.2 | 0.56 | CCC(c1cnn(-c2ccccc2F)c1)c1c(C#N)c(-c2cnc(C(F)(F)F)nc2)c2c(N)ncnn12 (single isomer, unassigned) [Example 15, 4-amino-7-{1-[1-(2-fluorophenyl)-1H-pyrazol-4-yl]propyl}-5-[2-(trifluoromethyl)pyrimidin-5-yl]pyrrolo[2,1-f][1,2,4]triazine-6-carbonitrile]
15 | 2 | 3.36 | CCC(c1cn(-c2ccc(F)cc2F)nn1)c1cc(-c2cnc(C(F)(F)F)nc2)c2c(N)ncnn12 (single isomer, unassigned) [Example 60, 7-{1-[1-(2,4-difluorophenyl)-1H-1,2,3-triazol-4-yl]propyl}-5-[2-(trifluoromethyl)pyrimidin-5-yl]pyrrolo[2,1-f][1,2,4]triazin-4-amine]
16 | 31.5 | 31.8 | CCC(c1cn(-c2ccccc2F)nn1)n1nc(-c2cnc(C(F)(F)F)nc2)c2c(N)ncnc21 (single isomer, unassigned) [Example 90, 1-{1-[1-(2-fluorophenyl)-1H-1,2,3-triazol-4-yl]propyl}-3-[2-(trifluoromethyl)pyrimidin-5-yl]-1H-pyrazolo[3,4-d]pyrimidin-4-amine]
17 | 0.66 | 3.13 | CC(c1cnn(-c2ccc(F)cc2F)c1)c1c(C#N)c(-c2cnc(C(F)(F)F)nc2)c2c(N)ncnn12 (single isomer, unassigned) [Example 21]
18 | 5 | 13.8 | CC(c1cc(-c2ccccc2F)no1)c1c(C#N)c(-c2cnc(C(F)(F)F)nc2)c2c(N)ncnn12 (single isomer, unassigned) [Example 19, 4-amino-7-{1-[3-(2-fluorophenyl)-1,2-oxazol-5-yl]ethyl}-5-[2-(trifluoromethyl)pyrimidin-5-yl]pyrrolo[2,1-f][1,2,4]triazine-6-carbonitrile]
19 | 4 | 12.5 | CC(c1cnn(-c2ccccc2F)c1)c1c(C#N)c(-c2cnc(C(F)(F)F)nc2)c2c(N)ncnn12 (single isomer, unassigned) [Example 12, 4-amino-7-{1-[1-(2-fluorophenyl)-1H-pyrazol-4-yl]ethyl}-5-[2-(trifluoromethyl)pyrimidin-5-yl]pyrrolo[2,1-f][1,2,4]triazine-6-carbonitrile]
20 | 1.67 | 3.1 | CC(c1cc(-c2ccccc2F)no1)c1c(C#N)c(-c2cnc(C(F)(F)F)nc2)c2c(N)ncnn12 (single isomer, unassigned) [Example 18, 4-amino-7-{1-[3-(2-fluorophenyl)-1,2-oxazol-5-yl]ethyl}-5-[2-(trifluoromethyl)pyrimidin-5-yl]pyrrolo[2,1-f][1,2,4]triazine-6-carbonitrile]
